Experimental data: PMC6979384, “Characterization of the plant homeodomain (PHD) reader family for their histone tail interactions” (Epigenetics & Chromatin, 2020)

Columns and labels:
Assay in all cases: Histone peptide microarray
Assay type in all cases: binding, human
[1] = system: BPTF (PB); conditions: BPTF (PB)
Method in brief: (§1)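 Recombinant GST-PHD protein at 0.5 μM; 293-member modified histone peptide array; signals averaged from four repeats ± SD.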

[2] = system: PHF8
Method in brief: as §1

[3] = system: KDM5A (3); conditions: KDM5A (3)
Method in brief: as §1

[4] = system: TRIM66 (PB); conditions: TRIM66 (PB)
Method in brief: as §1

[5] = system: ING4
Method in brief: as §1

[6] = system: CHD4 (PPCC); conditions: CHD4 (PPCC)
Method in brief: as §1

[7] = system: PHF2
Method in brief: as §1

[8] = system: KDM5B (3); conditions: KDM5B (3)
Method in brief: as §1

[9] = system: RAG2
Method in brief: as §1

[10] = system: CHD5 (PCC); conditions: CHD5 (PCC)
Method in brief: as §1

[11] = system: ING5
Method in brief: as §1

[12] = system: MLL5
Method in brief: as §1

[13] = system: KDM5B (1); conditions: KDM5B (1)
Method in brief: as §1

[14] = system: ING2
Method in brief: as §1

[15] = system: ING1
Method in brief: as §1

[16] = system: PHRF1 (RP); conditions: PHRF1 (RP)
Method in brief: as §1

[17] = system: AIRE (PP); conditions: AIRE (PP)
Method in brief: as §1

[18] = system: KDM4C (TTP); conditions: KDM4C (TTP)
Method in brief: as §1

[19] = system: SP140L; conditions: SP140L
Method in brief: as §1

[20] = system: ING3
Method in brief: as §1

[21] = system: DIDO1
Method in brief: as §1

[22] = system: DPF2 (PPC2W2); conditions: DPF2 (PPC2W2)
Method in brief: as §1

[23] = system: CHD5 (PPCC); conditions: CHD5 (PPCC)
Method in brief: as §1

[24] = system: PHF21A; conditions: PHF21A
Method in brief: as §1

[25] = system: PHF13
Method in brief: as §1

[26] = system: BAZ2B; conditions: BAZ2B
Method in brief: as §1

[27] = system: KDM5A (1); conditions: KDM5A (1)
Method in brief: as §1

[28] = system: TAF3
Method in brief: as §1

[29] = system: KDM7A; conditions: KDM7A
Method in brief: as §1

[30] = system: MORC3 (CW); conditions: MORC3 (CW)
Method in brief: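 Each reader, produced as a GST fusion and purified, was tested at 0.5 μM on synthetic histone peptides (293 in total) carrying single or combinatorial marks. Intensities averaged over four replicates.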

[31] = system: PHF23
Method in brief: as §1

[32] = GST-tagged, arrays performed twice, n of 4
[33] = sheet "Array Heatmap", each array performed twice, total n = 4

H4K5me1: H4 1-23 [Peptide H4K5me1]
Array Heatmap value (peptide array binding signal) [1, 32]: 0.4183
Array Heatmap value (peptide array binding signal) ([2]; PHF8, GST-tagged, arrays performed twice, n of 4): 0.4273
Array Heatmap value (peptide array binding signal) [3, 32]: 0.517
Array Heatmap value (peptide array binding signal) [4, 32]: 0.6456
Array Heatmap value (peptide array binding signal) ([5]; ING4, GST-tagged, arrays performed twice, n of 4): 0.5451
Array Heatmap value (peptide array binding signal) [6, 32]: 0.6385
Array Heatmap value (peptide array binding signal) ([7]; PHF2, GST-tagged, arrays performed twice, n of 4): 0.6413
Array Heatmap value (peptide array binding signal) [8, 32]: 0.5457
Array Heatmap value (peptide array binding signal) ([9]; RAG2, GST-tagged, arrays performed twice, n of 4): 0.3031
Array Heatmap value (peptide array binding signal) [10, 32]: 0.8576
Array Heatmap value (peptide array binding signal) ([11]; ING5, GST-tagged, arrays performed twice, n of 4): 0.4376
Array Heatmap value (peptide array binding signal) ([12]; MLL5, GST-tagged, arrays performed twice, n of 4): 0.6366
Array Heatmap value (peptide array binding signal) [13, 32]: 0.6332
Array Heatmap value (peptide array binding signal) ([14]; ING2, GST-tagged, arrays performed twice, n of 4): 0.6422
Array Heatmap value (peptide array binding signal) ([15]; ING1, GST-tagged, arrays performed twice, n of 4): 0.6473
Array Heatmap value (peptide array binding signal) [16, 32]: 0.5306
Array Heatmap value (peptide array binding signal) [17, 32]: 0.4948
Array Heatmap value (peptide array binding signal) [18, 32]: 0.5708
Array Heatmap value (peptide array binding signal) [19, 32]: 0.3991
Array Heatmap value (peptide array binding signal) ([20]; ING3, GST-tagged, arrays performed twice, n of 4): 0.5888
Array Heatmap value (peptide array binding signal) ([21]; DIDO1, GST-tagged, arrays performed twice, n of 4): 0.8543
Array Heatmap value (peptide array binding signal) [22, 32]: 0.7706
Array Heatmap value (peptide array binding signal) [23, 32]: 0.6548
Array Heatmap value (peptide array binding signal) [24, 32]: 0.5236
Array Heatmap value (peptide array binding signal) ([25]; PHF13, GST-tagged, arrays performed twice, n of 4): 0.7061
Array Heatmap value (peptide array binding signal) [26, 32]: 0.543
Array Heatmap value (peptide array binding signal) [27, 32]: 0.5517
Array Heatmap value (peptide array binding signal) ([28]; TAF3, GST-tagged, arrays performed twice, n of 4): 0.3308
Array Heatmap value (peptide array binding signal) [29, 32]: 0.4052
Array Heatmap value (peptide array binding signal) [30, 32]: 0.4265
Array Heatmap value (peptide array binding signal) ([31]; PHF23, GST-tagged, arrays performed twice, n of 4): 0.6043

H4K5proK8proK12pro: H4 1-23
Array Heatmap value (peptide array signal) [1, 33]: 0.4022
Array Heatmap value (peptide array signal) ([2]; PHF8, sheet "Array Heatmap", each array performed twice, total n = 4): 0.41
Array Heatmap value (peptide array signal) [3, 33]: 0.4569
Array Heatmap value (peptide array signal) [4, 33]: 0.6547
Array Heatmap value (peptide array signal) ([5]; ING4, sheet "Array Heatmap", each array performed twice, total n = 4): 0.5361
Array Heatmap value (peptide array signal) [6, 33]: 0.656
Array Heatmap value (peptide array signal) ([7]; PHF2, sheet "Array Heatmap", each array performed twice, total n = 4): 0.5444
Array Heatmap value (peptide array signal) [8, 33]: 0.4906
Array Heatmap value (peptide array signal) ([9]; RAG2, sheet "Array Heatmap", each array performed twice, total n = 4): 0.2779
Array Heatmap value (peptide array signal) [10, 33]: 0.8593
Array Heatmap value (peptide array signal) ([11]; ING5, sheet "Array Heatmap", each array performed twice, total n = 4): 0.4117
Array Heatmap value (peptide array signal) ([12]; MLL5, sheet "Array Heatmap", each array performed twice, total n = 4): 0.612
Array Heatmap value (peptide array signal) [13, 33]: 0.629
Array Heatmap value (peptide array signal) ([14]; ING2, sheet "Array Heatmap", each array performed twice, total n = 4): 0.6246
Array Heatmap value (peptide array signal) ([15]; ING1, sheet "Array Heatmap", each array performed twice, total n = 4): 0.5929
Array Heatmap value (peptide array signal) [16, 33]: 0.4879
Array Heatmap value (peptide array signal) [17, 33]: 0.5223
Array Heatmap value (peptide array signal) [18, 33]: 0.5585
Array Heatmap value (peptide array signal) [19, 33]: 0.3966
Array Heatmap value (peptide array signal) ([20]; ING3, sheet "Array Heatmap", each array performed twice, total n = 4): 0.5538
Array Heatmap value (peptide array signal) ([21]; DIDO1, sheet "Array Heatmap", each array performed twice, total n = 4): 0.7693
Array Heatmap value (peptide array signal) [22, 33]: 0.725
Array Heatmap value (peptide array signal) [23, 33]: 0.65
Array Heatmap value (peptide array signal) [24, 33]: 0.5432
Array Heatmap value (peptide array signal) ([25]; PHF13, sheet "Array Heatmap", each array performed twice, total n = 4): 0.7138
Array Heatmap value (peptide array signal) [26, 33]: 0.5476
Array Heatmap value (peptide array signal) [27, 33]: 0.5265
Array Heatmap value (peptide array signal) ([28]; TAF3, sheet "Array Heatmap", each array performed twice, total n = 4): 0.2924
Array Heatmap value (peptide array signal) [29, 33]: 0.3949
Array Heatmap value (peptide array signal) [30, 33]: 0.3861
Array Heatmap value (peptide array signal) ([31]; PHF23, sheet "Array Heatmap", each array performed twice, total n = 4): 0.5776
